{"source": "ChEMBL document CHEMBL3784999", "about": "“Investigation of 4-amino-5-alkynylpyrimidine-2(1H)-ones as anti-mycobacterial agents” (Bioorg Med Chem, 2016)", "key": {"[1]": {"tested_on": "Mycobacterium tuberculosis", "assay": "Antimycobacterial activity against Mycobacterium tuberculosis H37Ra assessed as inhibition of mycobacterial replication after 6 days by microplate Alamar blue assay", "format": "functional", "conditions": "144 h"}, "[2]": {"tested_on": "Mycobacterium tuberculosis", "assay": "Antimycobacterial activity against Mycobacterium tuberculosis H37Ra assessed as inhibition of mycobacterial replication at 200 ug/ml after 6 days by microplate Alamar blue assay", "format": "functional", "conditions": "144 h"}, "[3]": {"tested_on": "Mycobacterium tuberculosis", "assay": "Antimycobacterial activity against Mycobacterium tuberculosis H37Ra assessed as inhibition of mycobacterial replication at 100 ug/ml after 6 days by microplate Alamar blue assay", "format": "functional", "conditions": "144 h"}, "[4]": {"tested_on": "Mycobacterium tuberculosis", "assay": "Antimycobacterial activity against Mycobacterium tuberculosis H37Ra assessed as inhibition of mycobacterial replication at 25 ug/ml after 6 days by microplate Alamar blue assay", "format": "functional", "conditions": "144 h"}, "[5]": {"tested_on": "Mycobacterium tuberculosis", "assay": "Antimycobacterial activity against Mycobacterium tuberculosis H37Ra assessed as inhibition of mycobacterial replication at 6.25 ug/ml after 6 days by microplate Alamar blue assay in presence of isoniazid", "format": "functional", "conditions": "144 h"}, "[6]": {"tested_on": "Mycobacterium tuberculosis", "assay": "Ratio MIC90 for Mycobacterium tuberculosis H37Ra in presence of isoniazid to MIC90 for Mycobacterium tuberculosis H37Ra in absence of isoniazid", "format": "functional"}, "[7]": {"tested_on": "Mycobacterium tuberculosis", "assay": "Antimycobacterial activity against Mycobacterium tuberculosis H37Ra infected in BALB/c mouse assessed as reduction of bacterial load in lung at 25 mg/kg, po administered for 2 weeks started on day 4 post bacterial infection measured 3 days post last dose", "format": "functional"}, "[8]": {"tested_on": "Mycobacterium tuberculosis", "assay": "Antimycobacterial activity against Mycobacterium tuberculosis H37Ra infected in BALB/c mouse assessed as reduction of bacterial load in liver at 25 mg/kg, po administered for 2 weeks started on day 4 post bacterial infection measured 3 days post last dose", "format": "functional"}, "[9]": {"tested_on": "Mycobacterium tuberculosis", "assay": "Antimycobacterial activity against Mycobacterium tuberculosis H37Ra infected in BALB/c mouse assessed as reduction of bacterial load in lung at 12.5 mg/kg, po administered for 2 weeks started on day 4 post bacterial infection measured 3 days post last dose co-treated with 1 mg/kg, po isoniazid", "format": "functional"}, "[10]": {"tested_on": "Mycobacterium tuberculosis", "assay": "Antimycobacterial activity against Mycobacterium tuberculosis H37Ra infected in BALB/c mouse assessed as reduction of bacterial load in spleen at 12.5 mg/kg, po administered for 2 weeks started on day 4 post bacterial infection measured 3 days post last dose co-treated with 1 mg/kg, po isoniazid", "format": "functional"}, "[11]": {"tested_on": "Mycobacterium tuberculosis", "assay": "Antimycobacterial activity against Mycobacterium tuberculosis H37Ra infected in BALB/c mouse assessed as reduction of bacterial load in lung at 6.25 to 6.25 mg/kg, po administered for 2 weeks started on day 4 post bacterial infection measured 3 days post last dose", "format": "functional, organism-based"}, "[12]": {"tested_on": "Mycobacterium tuberculosis", "assay": "Antimycobacterial activity against Mycobacterium tuberculosis H37Ra infected in BALB/c mouse assessed as reduction of bacterial load in liver at 6.25 to 6.25 mg/kg, po administered for 2 weeks started on day 4 post bacterial infection measured 3 days post last dose", "format": "functional, organism-based"}, "Mus musculus [13]": {"tested_on": "Mus musculus", "assay": "Toxicity in BALB/c mouse infected with Mycobacterium tuberculosis H37Ra assessed as weight loss at 6.25 to 25 mg/kg, po administered for 2 weeks started on day 4 post bacterial infection", "format": "organism-based", "conditions": "in vivo, 336 h"}, "Mus musculus [14]": {"tested_on": "Mus musculus", "assay": "Toxicity in BALB/c mouse infected with Mycobacterium tuberculosis H37Ra assessed as behavioral changes at 6.25 to 25 mg/kg, po administered for 2 weeks started on day 4 post bacterial infection", "format": "organism-based", "conditions": "in vivo, 336 h"}, "Mus musculus [15]": {"tested_on": "Mus musculus", "assay": "Toxicity in BALB/c mouse infected with Mycobacterium tuberculosis H37Ra assessed as change in creatinine level in serum at 6.25 to 25 mg/kg, po administered for 2 weeks started on day 4 post bacterial infection", "format": "organism-based", "conditions": "in vivo, 336 h"}, "Mus musculus [16]": {"tested_on": "Mus musculus", "assay": "Toxicity in BALB/c mouse infected with Mycobacterium tuberculosis H37Ra assessed as change in phosphate level in serum at 6.25 to 25 mg/kg, po administered for 2 weeks started on day 4 post bacterial infection", "format": "organism-based", "conditions": "in vivo, 336 h"}, "Mus musculus [17]": {"tested_on": "Mus musculus", "assay": "Toxicity in BALB/c mouse infected with Mycobacterium tuberculosis H37Ra assessed as change in cholesterol level in serum at 6.25 to 25 mg/kg, po administered for 2 weeks started on day 4 post bacterial infection", "format": "organism-based", "conditions": "in vivo, 336 h"}, "Mus musculus [18]": {"tested_on": "Mus musculus", "assay": "Toxicity in BALB/c mouse infected with Mycobacterium tuberculosis H37Ra assessed as change in alkaline phosphatase level in serum at 6.25 to 25 mg/kg, po administered for 2 weeks started on day 4 post bacterial infection", "format": "organism-based", "conditions": "in vivo, 336 h"}, "Mus musculus [19]": {"tested_on": "Mus musculus", "assay": "Toxicity in BALB/c mouse infected with Mycobacterium tuberculosis H37Ra at 6.25 to 25 mg/kg, po administered for 2 weeks started on day 4 post bacterial infection by necroscopy", "format": "organism-based", "conditions": "in vivo, 336 h"}, "Mus musculus [20]": {"tested_on": "Mus musculus", "assay": "Toxicity in BALB/c mouse infected with Mycobacterium tuberculosis H37Ra at 6.25 to 25 mg/kg, po administered for 2 weeks started on day 4 post bacterial infection by necroscopy in presence of isoniazid", "format": "organism-based", "conditions": "in vivo, 336 h"}, "Mus musculus [21]": {"tested_on": "Mus musculus", "assay": "Toxicity in BALB/c mouse infected with Mycobacterium tuberculosis H37Ra assessed as behavioral changes at 6.25 to 25 mg/kg, po administered for 2 weeks started on day 4 post bacterial infection in presence of isoniazid", "format": "organism-based", "conditions": "in vivo, 336 h"}, "Mus musculus [22]": {"tested_on": "Mus musculus", "assay": "Toxicity in BALB/c mouse infected with Mycobacterium tuberculosis H37Ra assessed as change in urea level in serum at 6.25 to 25 mg/kg, po administered for 2 weeks started on day 4 post bacterial infection in presence of isoniazid", "format": "organism-based", "conditions": "in vivo, 336 h"}, "Mus musculus [23]": {"tested_on": "Mus musculus", "assay": "Toxicity in BALB/c mouse infected with Mycobacterium tuberculosis H37Ra assessed as change in creatinine level in serum at 6.25 to 25 mg/kg, po administered for 2 weeks started on day 4 post bacterial infection in presence of isoniazid", "format": "organism-based", "conditions": "in vivo, 336 h"}, "Mus musculus [24]": {"tested_on": "Mus musculus", "assay": "Toxicity in BALB/c mouse infected with Mycobacterium tuberculosis H37Ra assessed as change in phosphate level in serum at 6.25 to 25 mg/kg, po administered for 2 weeks started on day 4 post bacterial infection in presence of isoniazid", "format": "organism-based", "conditions": "in vivo, 336 h"}, "Mus musculus [25]": {"tested_on": "Mus musculus", "assay": "Toxicity in BALB/c mouse infected with Mycobacterium tuberculosis H37Ra assessed as change in calcium level in serum at 6.25 to 25 mg/kg, po administered for 2 weeks started on day 4 post bacterial infection in presence of isoniazid", "format": "organism-based", "conditions": "in vivo, 336 h"}, "Mus musculus [26]": {"tested_on": "Mus musculus", "assay": "Toxicity in BALB/c mouse infected with Mycobacterium tuberculosis H37Ra assessed as change in cholesterol level in serum at 6.25 to 25 mg/kg, po administered for 2 weeks started on day 4 post bacterial infection in presence of isoniazid", "format": "organism-based", "conditions": "in vivo, 336 h"}, "Mus musculus [27]": {"tested_on": "Mus musculus", "assay": "Toxicity in BALB/c mouse infected with Mycobacterium tuberculosis H37Ra assessed as change in alkaline phosphatase level in serum at 6.25 to 25 mg/kg, po administered for 2 weeks started on day 4 post bacterial infection in presence of isoniazid", "format": "organism-based", "conditions": "in vivo, 336 h"}, "Mus musculus [28]": {"tested_on": "Mus musculus", "assay": "Toxicity in BALB/c mouse infected with Mycobacterium tuberculosis H37Ra assessed as change in amylase level in serum at 6.25 to 25 mg/kg, po administered for 2 weeks started on day 4 post bacterial infection in presence of isoniazid", "format": "organism-based", "conditions": "in vivo, 336 h"}, "[29]": {"assay": "Cytotoxicity against African green monkey Vero cells assessed as cell viability after 3 days by XTT assay", "format": "cell-based", "conditions": "chlorocebus sabaeus"}, "Mus musculus [30]": {"tested_on": "Mus musculus", "assay": "Toxicity in BALB/c mouse infected with Mycobacterium tuberculosis H37Ra assessed as gross necroscopy changes at 6.25 to 25 mg/kg, po administered for 2 weeks started on day 4 post bacterial infection", "format": "organism-based", "conditions": "in vivo, 336 h"}}, "note": "Activity calls are given as the source filed them. No cut-off for these calls is given here."}
{"molecule": "CCCCCC#Cc1c[nH]c(=O)nc1N", "values": [{"measurement": "MIC50", "setting": "[1]", "value": 12.5, "unit": "µg/mL"}, {"measurement": "inhibition at 200 µg/mL", "setting": "[2]", "value": 100, "unit": "%"}, {"measurement": "inhibition at 100 µg/mL", "setting": "[3]", "value": 100, "unit": "%"}, {"measurement": "inhibition at 25 µg/mL", "setting": "[4]", "value": 90, "unit": "%"}, {"measurement": "inhibition at 6.25 µg/mL", "setting": "[5]", "value": 100, "unit": "%"}, {"measurement": "fractional inhibitory concentration index (FICI)", "setting": "[6]", "value": 0.37}, {"measurement": "inhibition in vivo at 25 mg/kg", "setting": "[7]", "value": 79, "unit": "%"}, {"measurement": "inhibition in vivo at 25 mg/kg", "setting": "[8]", "value": 50, "unit": "%"}, {"measurement": "inhibition (INH)", "setting": "[9]", "value": 95, "unit": "%"}, {"measurement": "inhibition (INH)", "setting": "[10]", "value": 70, "unit": "%"}, {"measurement": "Activity", "setting": "[11]", "value": "inactive"}, {"measurement": "Activity", "setting": "[12]", "value": "inactive"}, {"measurement": "Activity", "setting": "Mus musculus [13]", "value": "Non-toxic"}, {"measurement": "Activity", "setting": "Mus musculus [14]", "value": "Non-toxic"}, {"measurement": "Activity", "setting": "Mus musculus [15]", "value": "Non-toxic"}, {"measurement": "Activity", "setting": "Mus musculus [16]", "value": "Non-toxic"}, {"measurement": "Activity", "setting": "Mus musculus [17]", "value": "Non-toxic"}, {"measurement": "Activity", "setting": "Mus musculus [18]", "value": "Non-toxic"}, {"measurement": "Activity", "setting": "Mus musculus [19]", "value": "Non-toxic"}, {"measurement": "Activity", "setting": "Mus musculus [20]", "value": "Non-toxic"}, {"measurement": "Activity", "setting": "Mus musculus [21]", "value": "Non-toxic"}, {"measurement": "Activity", "setting": "Mus musculus [22]", "value": "Non-toxic"}, {"measurement": "Activity", "setting": "Mus musculus [23]", "value": "Non-toxic"}, {"measurement": "Activity", "setting": "Mus musculus [24]", "value": "Non-toxic"}, {"measurement": "Activity", "setting": "Mus musculus [25]", "value": "Non-toxic"}, {"measurement": "Activity", "setting": "Mus musculus [26]", "value": "Non-toxic"}, {"measurement": "Activity", "setting": "Mus musculus [27]", "value": "Non-toxic"}, {"measurement": "Activity", "setting": "Mus musculus [28]", "value": "Non-toxic"}, {"measurement": "CC50 at 72 h", "setting": "[29]", "value": "> 200", "unit": "µg/mL"}, {"measurement": "Activity", "setting": "Mus musculus [30]", "value": "Non-toxic"}]}
